Patent publication US20240391877A1, “COMPOUND AS INHIBITOR OF COMPLEMENT FACTOR D, AND PHARMACEUTICAL COMPOSITION AND USE THEREOF” (WUHAN CREATERNA SCIENCE AND TECHNOLOGY CO.,LTD., priority 2021, published 2024)

How the values were obtained:
complement factor D = molecular target: T1, complement factor D (Homo sapiens, UniProt P00746); assay: Complement factor D inhibitory activity (C3b method) in vitro screening; product Bb detected by ELISA; type: biochemical; conditions: factor D + factor B + factor C3b, 37° C., Bb by MicroVue Bb Plus ELISA
T1 construct: purchased Complement tech
Excerpt: 1. Complement Factor D Inhibitory Activity (C3b Method) In Vitro Screening Experiment
V-bottom plate (AXYGEN), DMSO (Sigma), MicroVue Bb Plus ELISA kit (Quidel), complement factor C3b (abbreviated as factor C3b, Complement tech), complement factor B (abbreviated as factor B, Complement tech), complement factor D (abbreviated as factor D, Complement tech), EDTA (MACKLIN), GVB^o (Complement tech), EGTA (Aladdin), MgCl2 (Aladdin), NaOH (Sinopharm), microplate reader (Molecular Devices, SpectraMax i3x), microplate thermostatic shaker (Thermo, MB100-2A), pipette (Gilson)
0.1 M Mg-EGTA: 3.8 g of EGTA, 0.9521 g of MgCl2, and 0.7 g of NaOH were weighed, and the pH was adjusted to 7.5 with NaOH. Distilled water was added to make up to 100 mL, and the mixture was filtered with a […] sterile needle filter, stored in portions at 4° C.
Buffer: 0.1 M Mg-EGTA solution was diluted 10-fold to 10 mM with GVB^o buffer; • factor B working solution: 1 mg/mL factor B solution (10.75 μM) was diluted 6.7-fold to 1.6 μM with buffer; • factor C3b working solution: 1 mg/mL factor C3b solution (5.68 μM) was diluted 5-fold to […] with buffer; • factor D working solution: 0.1 mg/mL factor D solution (4.17 μM) was diluted 1303-fold to 3.2 nM with buffer.
Note: a. The above dilution multiples are for reference only and are adjusted according to the true concentration labeled on the reagent; • b. factor B: 93 KDa, factor D: 24 KDa, factor C3b: 176 KDa.
Stop solution: An appropriate amount of EDTA powder was weighed, dissolved in a certain amount of GVB^o buffer, and the pH was adjusted to 7.5 with NaOH. The mixture was stirred until clear and prepared into a 10 mM solution.
Compound stock solution: 40 mM compound solution was diluted with DMSO into 1 mM stock solution, and the 1 mM stock solution was diluted 3-fold with DMSO at 8 points to prepare compound stock solutions of various concentrations.
Compound working solution: diluted 250-fold with buffer to obtain compound solutions of various concentrations.
In the V-bottom plate, the experimental group was added with 10 μL of factor D solution and 10 μL of compound solution; the positive control group was added with 10 μL of factor D solution and buffer containing 0.4% DMSO; the blank control group was added with […] containing 0.2% DMSO; incubated at 37° C. for 15 min; the factor B working solution and the factor C3b working solution were mixed homogeneously at a ratio of 1:1; 20 µL of the mixture was added to each well and incubated at 37° C. for 30 min; the reaction was stopped by adding 40 μL of stop solution; the production of product Bb was detected by MicroVue Bb Plus ELISA kit.
1.4.1 The required wells of the ELISA plate were taken out and allowed to return to room temperature, and the remaining ones were repackaged and stored at 4° C.;
1.4.2 the wells were washed twice with 300 μL of 1× wash buffer, and incubated for 1 min at 25° C. for the first wash;
1.4.3 samples were diluted 8-fold with complement specimen diluent, and 100 μL of sample was added to each well and incubated at 25° C. for 30 min;
1.4.4 the liquid in the wells was discarded, and the wells were washed 5 times with 300 μL of 1× wash buffer, and incubated at room temperature for 1 min for the first wash;
1.4.5 50 μL of Bb Plus Conjugate was added to each well and incubated at 25° C. for 30 min;
1.4.6 the liquid in the wells was discarded, and the wells were washed 5 times with 300 μL of 1× wash buffer, and incubated at room temperature for 1 min for the first wash;
1.4.7 100 μL of […] (Substrate Solution) was added to each well and incubated at 25° C. for 15 min;
1.4.8 100 μL of stop solution was added to each well, and the absorbance was detected at 450 nm within 30 min.
1.5.1 Inhibition rate of each drug concentration:
The PC group represents 0% inhibition rate, and the NC group represents 100% inhibition rate. […]

[1] = test system: hemolysis of rabbit erythrocytes; assay: Rabbit erythrocyte hemolysis assay to evaluate inhibitory activity on the bypass pathway; type: cell-based; conditions: Oryctolagus cuniculus, 0.5 h, 48% NHP or 26.4% NHS, 37° C. 30 min, absorbance 415 nm
Excerpt: 2. Rabbit Erythrocyte Hemolysis Assay to Evaluate the Inhibitory Activity of Compounds on the Bypass Pathway
Normal Human Serum, NHS (collected from healthy people), Normal Human Plasma, NHP (Shanghai Yuduo), 96-well ELISA plate (Jet Biofil), Japanese big-eared white rabbit (Wuhan WQJX), Alsever's solution (Procell), centrifuge (Thermo, PICO17), thermostatic shaker (Shanghai Fuma), destaining shaker (Beijing Liuyi), cell counter (Invitrogen, Counter Countess II) (GVB^o, EGTA, MgCl2, NaOH, microplate reader, microplate thermostatic shaker, and pipette are equivalent to those in the experiment 1).
48% NHP: 100% NHP was diluted to 48% with buffer;
26.4% NPS: 100% NHS was diluted to 26.4% with buffer;
rabbit erythrocyte suspension: blood was taken from rabbit ear marginal vein, anticoagulated with Alsever's solution at a ratio of 1:1, stored in portions at 4° C., and could be stored for 4 weeks. Before use, the suspension was centrifuged at 500 g for 5 min to discard the Alsever's solution, washed three times with an equal volume of buffer and centrifuged at 500 g for 5 min, and finally the density was adjusted to 6×10^8 cells/mL with buffer.
In the 96-well ELISA plate, the experimental group was added with 50 μL of 48% NHP or 26.4% NHS and 50 μL of compound solution; the positive control group was added with 50 μL of 48% NHP or 26.4% NHS and 50 μL of buffer containing 0.2% DMSO; the blank control group was added with 50 μL of 48% inactivated NHP or 26.4% inactivated NHS and 0.2% DMSO buffer; the H2O group was added with 100 μL of double-distilled water; incubated at 37° C. for 15 min; 20 μL of rabbit erythrocyte suspension was added to each well and incubated on a shaker at 37° C. for 30 min; centrifuged at 2000 g (3380 rpm) for 5 min, and […] of supernatant was transferred to a new 96-well ELISA plate, and the absorbance was detected at 415 nm.
The PC group represents 100% hemolysis, and the NC group represents 0% hemolysis.
IC50: half-maximal inhibitory concentration. Data were collected to calculate the log value of hemolysis percentage versus compound concentration, and IC50 values were calculated using GraphPad Prism software.

T1 sequence (P00746 26-253): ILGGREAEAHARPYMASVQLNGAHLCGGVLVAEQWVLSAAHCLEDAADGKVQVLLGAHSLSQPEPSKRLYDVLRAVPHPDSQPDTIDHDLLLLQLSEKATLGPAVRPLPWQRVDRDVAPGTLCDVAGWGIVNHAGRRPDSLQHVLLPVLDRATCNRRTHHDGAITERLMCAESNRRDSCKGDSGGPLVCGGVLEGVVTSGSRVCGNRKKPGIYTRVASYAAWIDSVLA

Compound	IC50 (complement factor D) [nM]	IC50 [1] [nM]
NCc1cccc(-c2cc(COc3ccccc3CC(=O)O)cc(N3CC4CCC(C4)C3)c2)c1 [Compound 006, 2-(2-((3′-(aminomethyl)-5-(3-azabicyclo[3.2.1]octan-3-yl)-′[1,1′-biphenyl]-3-yl)methoxy)phenyl)acetic acid]	4	54
NCc1cc(F)cc(-c2cc(COc3ccccc3CC(=O)O)cc(N3CCC4(CC3)CC4)c2)c1 [Compound 008, 2-(2-((3′-(aminomethyl)-5′-fluoro-5-(6-azaspiro[2.5]octan-6-yl)-[1,1′-biphenyl]-3-yl)methoxy)phenyl)acetic acid]	18	196
NCc1cccc(-c2cc(COc3ccccc3CC(=O)O)cc(N3CCC4(CC3)CC(O)C4)c2)c1 [Compound 013, 2-(2-((3′-(aminomethyl)-5-(2-hydroxy-7-azaspiro[3.5]nonan-7-yl)-[1,1′-biphenyl]-3-yl)methoxy)phenyl)acetic acid]	11	28
NCc1cccc(-c2cc(COc3ccccc3CC(=O)O)cc(N3CCC4(CCOC4)CC3)c2)c1 [Compound 014, 2-(2-((3′-(aminomethyl)-5-(2-oxa-8-azaspiro[4.5]decan-8-yl)-[1,1′-biphenyl]-3-yl)methoxy)phenyl)acetic acid]	14	10
NCc1cccc(-c2cc(COc3ccccc3CC(=O)O)cc(N3CCOC4(CC4)C3)c2)c1 [Compound 016, 2-(2-((3′-(aminomethyl)-5-(4-oxa-7-azaspiro[2.5]octan-7-yl)-[1,1′-biphenyl]-3-yl)methoxy)phenyl)acetic acid]	26	19
NCc1cccc(-c2cc(COc3ccccc3CC(=O)O)cc(N3CC4(CCCC4)C3)c2)c1 [Compound 017, 2-(2-((3′-(aminomethyl)-5-(2-azaspiro[3.4]octan-2-yl)-[1,1′-biphenyl]-3-yl)methoxy)phenyl)acetic acid]	6	65
NCc1cccc(-c2cc(COc3ccccc3CC(=O)O)cc(N3CCC4(CCCOC4)CC3)c2)c1 [Compound 030, 2-(2-((3′-(aminomethyl)-5-(2-oxa-9-azaspiro[5.5]undecan-9-yl)-[1,1′-biphenyl]-3-yl)methoxy)phenyl)acetic acid]	4	22
CN1CC2(CCN(c3cc(COc4ccccc4CC(=O)O)cc(-c4cccc(CN)c4)c3)CC2)C1 [Compound 032, 2-(2-((3′-(aminomethyl)-5-(2-methyl-2,7-diazaspiro[3.5]nonan-7-yl)-[1,1′-biphenyl]-3-yl)methoxy)phenyl)acetic acid]	10	8
NCc1cccc(-c2cc(COc3ccccc3CC(=O)O)cc(N3CCC4(CCCC4)C3)c2)c1 [Compound 034]	1	11

Continued, in another order:

IC50 (complement factor D) [nM]	Compound	IC50 [1] [nM]
18	NCc1cccc(-c2cc(COc3ccccc3CC(=O)O)cc(N3CCC4(CC3)COC4)c2)c1 [Compound 011, 2-(2-((3′-(aminomethyl)-5-(2-oxa-7-azaspiro[3.5]nonan-7-yl)-[1,1′-biphenyl]-3-yl)methoxy)phenyl)acetic acid]	13
6	NCc1cccc(-c2cc(COc3ccccc3CC(=O)O)cc(N3CCC4(CCO4)CC3)c2)c1 [Compound 012, 2-(2-((3′-(aminomethyl)-5-(1-oxa-7-azaspiro[3.5]nonan-7-yl)-[1,1′-biphenyl]-3-yl)methoxy)phenyl)acetic acid]	4
11	NCc1cccc(-c2cc(COc3cc(F)ccc3CC(=O)O)cc(N3CCC4(CC3)CC4)c2)c1F [Compound 021, 2-(2-((3′-(aminomethyl)-2′-fluoro-5-(6-azaspiro[2.5]octan-6-yl)-[1,1′-biphenyl]-3-yl)methoxy)-4-fluorophenyl)acetic acid]	65
4	NCc1cccc(-c2cc(COc3ccccc3CC(=O)O)cc(N3CCC4(CC3)COC4)c2)c1F [Compound 024, 2-(2-((3′-(aminomethyl)-2′-fluoro-5-(2-oxa-7-azaspiro[3.5]nonan-7-yl)-[1,1′-biphenyl]-3-yl)methoxy)phenyl)acetic acid]	27
7	NCc1cccc(-c2cc(COc3ccc(F)cc3CC(=O)O)cc(N3CCC4(CC3)COC4)c2)c1F [Compound 025, 2-(2-((3′-(aminomethyl)-2′-fluoro-5-(2-oxa-7-azaspiro[3.5]nonan-7-yl)-[1,1′-biphenyl]-3-yl)methoxy)-5-fluorophenyl)acetic acid]	12
6	NCc1cccc(-c2cc(COc3ccccc3CC(=O)O)cc(N3CCC4(CCOCC4)CC3)c2)c1 [Compound 029, 2-(2-((3′-(aminomethyl)-5-(3-oxa-9-azaspiro[5.5]undecan-9-yl)-[1,1′-biphenyl]-3-yl)methoxy)phenyl)acetic acid]	10
3	NCc1cccc(-c2cc(COc3ccccc3CC(=O)O)cc(N3CC4(CCOC4)C3)c2)c1 [Compound 031, 2-(2-((3′-(aminomethyl)-5-(6-oxa-2-azaspiro[3.4]octan-2-yl)-[1,1′-biphenyl]-3-yl)methoxy)phenyl)acetic acid]	6
2	NCc1cccc(-c2cc(COc3ccccc3CC(=O)O)cc(N3CCC4(CCNCC4)CC3)c2)c1 [Compound 033, 2-(2-((3′-(aminomethyl)-5-(3,9-diazaspiro[5.5]undecan-3-yl)-[1,1′-biphenyl]-3-yl)methoxy)phenyl)acetic acid]	3
